target: T1, 12-lipoxygenase (Sus scrofa, UniProt P16469); test: Inhibition of 12-lipoxygenase activity by aryl aliphatic acids (porcine leukocyte cytosol, conversion of [1-14C] arachidonic acid to 12-HETE); format: biochemical; conditions: porcine leukocyte cytosol 0.075 mg/ml protein; 0.1 M HEPES, pH 8.0; 5 min preincubation, 15 min at 37° C.; arachidonic acid given as 5 mM
T1 construct: porcine leukocyte cytosol containing 12-lipoxygenase; from tissue; host or cells: porcine leukocyte cytosol
T1 sequence (P16469 1-663): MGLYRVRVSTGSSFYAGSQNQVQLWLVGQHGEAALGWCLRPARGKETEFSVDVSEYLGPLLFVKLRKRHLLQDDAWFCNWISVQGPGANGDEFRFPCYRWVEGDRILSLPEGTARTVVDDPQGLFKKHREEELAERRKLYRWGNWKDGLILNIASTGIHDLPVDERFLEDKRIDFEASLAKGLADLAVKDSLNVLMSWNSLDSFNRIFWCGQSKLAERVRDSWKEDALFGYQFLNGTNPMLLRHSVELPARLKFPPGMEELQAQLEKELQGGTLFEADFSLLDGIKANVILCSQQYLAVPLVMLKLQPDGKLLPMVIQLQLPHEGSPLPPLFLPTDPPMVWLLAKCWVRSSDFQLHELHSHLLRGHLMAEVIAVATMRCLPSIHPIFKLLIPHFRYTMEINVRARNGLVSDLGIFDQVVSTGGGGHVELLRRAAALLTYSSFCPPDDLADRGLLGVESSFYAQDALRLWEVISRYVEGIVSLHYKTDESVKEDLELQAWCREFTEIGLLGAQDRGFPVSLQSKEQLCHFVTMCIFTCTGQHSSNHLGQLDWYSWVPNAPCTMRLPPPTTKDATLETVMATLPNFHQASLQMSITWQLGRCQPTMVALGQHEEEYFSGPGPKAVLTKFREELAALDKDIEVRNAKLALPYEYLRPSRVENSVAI
Experimental: The standard assay procedure is as follows: […] [1^-14 C] Arachidonic acid was added (final concentration of […]) and the reactions were incubated for 15 minutes at 37° C. and terminated by the addition of HCl. […] Samples were extracted with water-saturated ethyl acetate and the extracts were spotted onto TLC plates. The plates were developed with dichloromethane/ethyl acetate/acetic acid in a ratio of 70:30:1. […] The percentage conversion to 12-HETE was calculated from the percentage of the total ^14 C on the TLC plate that coelutes with a standard of 12-HETE.

Row | Structure (SMILES) | IC50 [nM]
1 | CCCCCCCCCCC#CCOCc1ccc(CCC(=O)O)cc1 [Compound 24, 3-[4-(2-Tridecynyloxymethyl)phenyl]propanoic Acid] | 35
2 | CCCCCCC#CCOCc1ccc(CCC(=O)O)cc1 [Compound 25, 3-[4-(2-Nonynyloxymethyl)phenyl]propanoic Acid] | 2000
3 | CCCCCCCCC#CCOCc1ccc(CCC(=O)O)cc1 [Compound 26, 3-[4-(2-Undecynyloxymethyl)phenyl]propanoic Acid] | 100
4 | CCCCCCCCCCCCC#CCOCc1ccc(CCC(=O)O)cc1 [Compound 27, 3-[4-(2-Pentadecynyloxymethyl)phenyl]propanoic Acid] | 320
5 | CCCCCCCCCCc1ccc(COCc2ccc(CCC(=O)O)cc2)cc1 [Compound 30, 3-[4-[4-(Decylphenylmethyl)oxymethyl]phenyl]propanoic Acid] | 5000
6 | CCCCCCCCCC/C=C\COCc1ccc(CCC(=O)O)cc1 [Compound 31, cis-3-[4-(2-Tridecenyloxymethyl)-phenyl]propanoic Acid] | 1000

Results, then the compound that gave them:

Row | IC50 [nM] | Structure (SMILES)
7 | 400 | CCCCCCCCCC/C=C/COCc1ccc(CCC(=O)O)cc1 [Compound 32, trans-3-[4-(2-Tridecenyloxymethyl)phenyl]propanoic Acid]
8 | 280 | CCCCCCCCCCC=C=CCOCc1ccc(CCC(=O)O)cc1 [Compound 34, (S)-(+)-3-[4-(2,3-Tetradecadienyloxymethyl)phenyl]propanoic Acid]
9 | 450 | CCCCCCCCCCC=C=CCOCc1ccc(CCC(=O)O)cc1 [Compound 35, (R)-3-[4-(2,3-Tetradecadienyloxymethyl)]
